Experimental data as given in ChEMBL document CHEMBL1201862, “PubChem BioAssay data set” (2004).
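Method: 48-hour compound exposure of cells in 96-well plates, five concentrations, linear interpolation of endpoints. At the GI50, growth is halved.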 Active and inactive are the calls of the source. Rule as the data show it: active = GI50 up to about 1.1 µM and inactive = higher.

Legend:
Experiment in all cases: inhibition of tumour cell growth, NCI panel, 48 h
SK-MEL-2 = tested on: SK-MEL-2
HCT-15 = tested on: HCT-15
HCT-116 = tested on: HCT-116
HOP-92 = tested on: HOP-92
K562 = tested on: K562
ACHN = tested on: ACHN
A498 = tested on: A498
NCI-H460 = tested on: NCI-H460
MDA-MB-231 = tested on: MDA-MB-231
HL-60 = tested on: HL-60
NCI-H23 = tested on: NCI-H23
T47D = tested on: T47D
SK-MEL-28 = tested on: SK-MEL-28
SNB-19 = tested on: SNB-19
786-0 = tested on: 786-0
CAKI-1 = tested on: CAKI-1
XF498 = tested on: XF498
SK-OV-3 = tested on: SK-OV-3
LOX IMVI = tested on: LOX IMVI
COLO 205 = tested on: COLO 205
HCC 2998 = tested on: HCC 2998
BT-549 = tested on: BT-549
UO-31 = tested on: UO-31
MDA-N = tested on: MDA-N
SNB-78 = tested on: SNB-78
SW-620 = tested on: SW-620
HOP-18 = tested on: HOP-18
M19-MEL = tested on: M19-MEL
UACC-257 = tested on: UACC-257
Hs-578T = tested on: Hs-578T
KM12 = tested on: KM12
M14 = tested on: M14
CCRF-CEM = tested on: CCRF-CEM
HT-29 = tested on: HT-29
MCF7 = tested on: MCF7
RPMI-8226 = tested on: RPMI-8226
MOLT-4 = tested on: MOLT-4
DMS-114 = tested on: DMS-114
SK-MEL-5 = tested on: SK-MEL-5
OVCAR-4 = tested on: OVCAR-4
UACC-62 = tested on: UACC-62
DMS-273 = tested on: DMS-273
LXFL 529 = tested on: LXFL 529
OVCAR-3 = tested on: OVCAR-3
DLD-1 = tested on: DLD-1
MDA-MB-435 = tested on: MDA-MB-435
DU-145 = tested on: DU-145
A549 = tested on: A549
SN12C = tested on: SN12C
SF-268 = tested on: SF-268
SNB-75 = tested on: SNB-75
KM-20L2 = tested on: KM-20L2
NCI-H522 = tested on: NCI-H522
SR = tested on: SR
TK-10 = tested on: TK-10
SF-539 = tested on: SF-539
RXF 393 = tested on: RXF 393
EKVX = tested on: EKVX
Malme-3M = tested on: Malme-3M
SF-295 = tested on: SF-295
OVCAR-8 = tested on: OVCAR-8
U-251 = tested on: U-251
NCI-H226 = tested on: NCI-H226
NCI/ADR-RES = tested on: NCI/ADR-RES
PC-3 = tested on: PC-3
OVCAR-5 = tested on: OVCAR-5
IGROV-1 = tested on: IGROV-1
HOP-62 = tested on: HOP-62

In the case of COc1ccc2c(c1)[C@@H](NC(C)=O)CCc1cc(OC)c(OC)c(OC)c1-2, the GI50 (SK-MEL-2) is reported as 17.4 nM (active), the GI50 (HCT-15) is reported as 15 nM and the GI50 (HCT-116) is reported as 14.8 nM (active). For the same compound, the GI50 (HOP-92) was 21.9 nM (active), the GI50 (K562) was 12.8 nM (active) and the GI50 (ACHN) was 17.9 nM (active). For the same compound, the GI50 (A498) was 14.3 nM (active), the GI50 (NCI-H460) was 16.8 nM (active) and the GI50 (MDA-MB-231) was 22.8 nM (active). The GI50 (HL-60) was < 12 nM (active), the GI50 (NCI-H23) was 14.3 nM (active) and the GI50 (T47D) was > 100000 nM (inactive). For the same compound, the GI50 (SK-MEL-28) was < 17 nM (active), the GI50 (SNB-19) was 22.2 nM (active) and the GI50 (786-0) was 19 nM (active). The GI50 (CAKI-1) was 20.6 nM (active), the GI50 (XF498) was 13.7 nM (active) and the GI50 (SK-OV-3) was 129 nM (active). For the same compound, the GI50 (LOX IMVI) was 18 nM (active), the GI50 (COLO 205) was 13.5 nM (active) and the GI50 (HCC 2998) was 17.4 nM (active). For the same compound, the GI50 (BT-549) was 1850 nM (inactive), the GI50 (UO-31) was 29.6 nM (active) and the GI50 (MDA-N) was 12.8 nM (active). The GI50 (SNB-78) was 10.7 nM (active), the GI50 (SW-620) was 17.2 nM (active) and the GI50 (HOP-18) was > 100000 nM (inactive). For the same compound, the GI50 (M19-MEL) was < 15.4 nM (active), the GI50 (UACC-257) was 108 nM (active) and the GI50 (Hs-578T) was 16.9 nM (active). For the same compound, the GI50 (KM12) was 13.1 nM (active), the GI50 (M14) was 16.6 nM (active) and the GI50 (CCRF-CEM) was 39.8 nM (active). For the same compound, the GI50 (HT-29) was 14.6 nM (active), the GI50 (MCF7) was 46.3 nM (active) and the GI50 (RPMI-8226) was 20.6 nM (active). For the same compound, the GI50 (MOLT-4) was 20.6 nM (active), the GI50 (DMS-114) was 11.8 nM (active) and the GI50 (SK-MEL-5) was 19 nM (active). The GI50 (OVCAR-4) was 9840 nM (inactive), the GI50 (UACC-62) was 15.4 nM (active) and the GI50 (DMS-273) was < 10 nM (active). For the same compound, the GI50 (LXFL 529) was < 13.7 nM (active), the GI50 (OVCAR-3) was 14.4 nM (active) and the GI50 (DLD-1) was < 13.8 nM (active). For the same compound, the GI50 (MDA-MB-435) was 13.2 nM (active), the GI50 (DU-145) was 18.5 nM (active) and the GI50 (A549) was 17.6 nM (active). The GI50 (SN12C) was 20 nM (active), the GI50 (SF-268) was 15.4 nM (active) and the GI50 (SNB-75) was 25.8 nM (active). For the same compound, the GI50 (KM-20L2) was 11.7 nM (active), the GI50 (NCI-H522) was 13 nM (active) and the GI50 (SR) was 83.4 nM (active). For the same compound, the GI50 (TK-10) was 2540 nM (inactive), the GI50 (SF-539) was 13 nM (active) and the GI50 (RXF 393) was 15.1 nM (active). For the same compound, the GI50 (EKVX) was 8340 nM (inactive), the GI50 (Malme-3M) was 21.6 nM (active) and the GI50 (SF-295) was 15.1 nM (active). For the same compound, the GI50 (OVCAR-8) was 15.7 nM (active), the GI50 (U-251) was 17.3 nM (active) and the GI50 (NCI-H226) was 89.1 nM (active). The GI50 (NCI/ADR-RES) was 19.8 nM (active), the GI50 (PC-3) was 25.1 nM (active) and the GI50 (OVCAR-5) was 1500 nM (inactive). The GI50 (IGROV-1) was 17.3 nM (active) and the GI50 (HOP-62) was 21.6 nM (active).
